Test results taken from PubChem BioAssay AID328 (DTP/NCI, 2004).
Values joined by “and” are separate entries in the source; they are usually repeats but may differ in a detail not shown here. Equal values may be shown once. Inconclusive results and toxic doses are left out. Rule for the calls: active = survival T/C of 150% or more; inactive = T/C below 125% in these data.

Test system: BDF1 mice, P388 leukemia ip, median survival T/C
Assay: NCI In Vivo Anticancer Drug Screen. Data for tumor model P388 Leukemia (intraperitoneal) in B6D2F1 (BDF1) mice
Conditions: endpoint: median survival time, higher = longer survival
Method in brief: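 Steps: implant the tumour, treat one group with compound and another with vehicle, record survival, then divide treated by control.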

[1] = dose: 50.0 mg/kg/injection, schedule: Q04DX003 (ip), vehicle: Klucel (hydroxypropylcellulose) (HPC)
[2] = dose: 100.0 mg/kg/injection, schedule: Q04DX003 (ip), vehicle: Klucel (hydroxypropylcellulose) (HPC)
[3] = dose: 200.0 mg/kg/injection, schedule: Q04DX003 (ip), vehicle: Klucel (hydroxypropylcellulose) (HPC)
[4] = dose: 100.0 mg/kg/injection, schedule: Q04DX003 (ip), vehicle: saline with Tween-80
[5] = dose: 200.0 mg/kg/injection, schedule: Q04DX003 (ip), vehicle: saline with Tween-80
[6] = dose: 50.0 mg/kg/injection, schedule: Q01DX009 (ip), vehicle: saline with Tween-80
[7] = dose: 100.0 mg/kg/injection, schedule: Q01DX009 (ip), vehicle: saline with Tween-80

Measured: T/C

O=C1c2ccccc2C(=O)N1c1cc(OCc2ccccc2)cc(OCc2ccccc2)c1
inactive: dose: 0.78 mg/kg/injection, schedule: Q01DX009 (ip), vehicle: water 99 % of control and 103 % of control | dose: 1.56 mg/kg/injection, schedule: Q01DX009 (ip), vehicle: water 96 % of control and 101 % of control | dose: 3.12 mg/kg/injection, schedule: Q01DX009 (ip), vehicle: water 105 % of control and 120 % of control | dose: 6.25 mg/kg/injection, schedule: Q01DX009 (ip), vehicle: water 96 % of control | dose: 12.5 mg/kg/injection, schedule: Q01DX009 (ip), vehicle: water 95 % of control and 99 % of control and 112 % of control | dose: 25.0 mg/kg/injection, schedule: Q01DX009 (ip), vehicle: water 99 % of control and 105 % of control | dose: 50.0 mg/kg/injection, schedule: Q01DX009 (ip), vehicle: water 89 % of control and 117 % of control | dose: 50.0 mg/kg/injection, schedule: Q04DX003 (ip), vehicle: water 94 % of control | dose: 100.0 mg/kg/injection, schedule: Q01DX009 (ip), vehicle: water 96 % of control | dose: 100.0 mg/kg/injection, schedule: Q04DX003 (ip), vehicle: water 99 % of control | dose: 200.0 mg/kg/injection, schedule: Q01DX009 (ip), vehicle: water 88 % of control and 115 % of control | dose: 200.0 mg/kg/injection, schedule: Q04DX003 (ip), vehicle: water 90 % of control | dose: 400.0 mg/kg/injection, schedule: Q01DX009 (ip), vehicle: water 101 % of control | dose: 400.0 mg/kg/injection, schedule: Q04DX003 (ip), vehicle: water 99 % of control

CCCCNC(=O)OC
inactive: dose: 50.0 mg/kg/injection, schedule: Q01DX009 (ip), vehicle: Klucel (hydroxypropylcellulose) (HPC) 100 % of control | [1] 100 % of control | dose: 100.0 mg/kg/injection, schedule: Q01DX009 (ip), vehicle: Klucel (hydroxypropylcellulose) (HPC) 100 % of control | [2] 95 % of control | [3] 115 % of control

N=C(N=C(N)N)N1CCOCC1
inactive: dose: 50.0 mg/kg/injection, schedule: Q04DX003 (ip), vehicle: saline with Tween-80 110 % of control | [4] 115 % of control | [5] 105 % of control

O=[N+]([O-])c1ccc(S(=O)(=O)OCc2cccc(OS(=O)(=O)c3ccc([N+](=O)[O-])cc3)c2)cc1
inactive: dose: 100.0 mg/kg/injection, schedule: Q04DX003 (ip), vehicle: saline sonified 105 % of control | dose: 200.0 mg/kg/injection, schedule: Q04DX003 (ip), vehicle: saline sonified 116 % of control | dose: 400.0 mg/kg/injection, schedule: Q04DX003 (ip), vehicle: saline sonified 105 % of control

O=CNc1ccc(O)cc1
inactive: [4] 104 % of control | [5] 104 % of control | dose: 400.0 mg/kg/injection, schedule: Q04DX003 (ip), vehicle: saline with Tween-80 100 % of control

O=C(/C=C/c1ccc(OCc2ccccc2)cc1)c1ccc(Br)cc1
inactive: [6] 91 % of control | [7] 86 % of control | dose: 200.0 mg/kg/injection, schedule: Q01DX009 (ip), vehicle: saline with Tween-80 87 % of control

CCC[N+]12C(O)C(CC)C3CC1C1N(C)c4ccc(Br)cc4C14CC2C3C4O (configuration not stated)
inactive: [6] 102 % of control | [7] 105 % of control

Cc1ccc(S(=O)(=O)N/N=C/c2ccncc2)cc1
inactive: dose: 12.5 mg/kg/injection, schedule: Q01DX009 (ip), vehicle: other 110 % of control | dose: 25.0 mg/kg/injection, schedule: Q01DX009 (ip), vehicle: other 117 % of control | dose: 50.0 mg/kg/injection, schedule: Q01DX009 (ip), vehicle: other 119 % of control
active: dose: 200.0 mg/kg/injection, schedule: Q01DX009 (ip), vehicle: other 155 % of control

O=S1(=O)CC(S(=O)(=O)O)C(S(=O)(=O)O)C1 (configuration not stated)
inactive: [1] 100 % of control | dose: 100.0 mg/kg/injection, schedule: Q01DX001 (ip), vehicle: saline 108 % of control | [2] 100 % of control | dose: 200.0 mg/kg/injection, schedule: Q01DX001 (ip), vehicle: saline 100 % of control | [3] 100 % of control | dose: 400.0 mg/kg/injection, schedule: Q01DX001 (ip), vehicle: saline 108 % of control

C[C@H]1C=C(O)C(=O)[C@@]2(C)C[C@H]3CCC(=O)O[C@H]3C[C@H]12
inactive: dose: 2.5 mg/kg/injection, schedule: Q01DX009 (ip), vehicle: saline + alcohol 105 % of control | dose: 5.0 mg/kg/injection, schedule: Q01DX009 (ip), vehicle: saline + alcohol 107 % of control | dose: 10.0 mg/kg/injection, schedule: Q01DX009 (ip), vehicle: saline + alcohol 91 % of control | dose: 20.0 mg/kg/injection, schedule: Q01DX009 (ip), vehicle: saline + alcohol 100 % of control
